Structures can show the parent of a compound that is named as a salt. Where two headings read alike, the source gives them in different places.

In this experiment the target is T1, Human IP6K1 (Homo sapiens, UniProt Q92551).
T1 construct: GST (N, cleaved yes); made in house; host or cells: C43 E. coli, pGEX-6P-2
Kind of experiment: IP6K1 high-throughput screen of the Sigma LOPAC (ADP-Glo Max, single point).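 Note: final compound concentration 10µM in 5% DMSO.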 The class given is biochemical. On the technique in general: ADP-Glo first removes unused ATP, then detects ADP through luciferase.

Setting [1] is: LOPAC single-point screen, ADP-Glo Max raw signal per well.
The mark [2] stands for this setting: LOPAC single-point screen, Z-score against plate average and StDev.
The mark [3] stands for this setting: LOPAC single-point screen, Z-score from raw signal with plate average and StDev.
[4] abbreviates: LOPAC single-point screen, ADP-Glo Max luminescence raw signal per well.
Where [5] appears, read: LOPAC single-point screen, Z-score relative to plate average and StDev.
Setting [6] is: Sigma LOPAC single-point screen, ADP-Glo Max raw signal per well.
[7] abbreviates: Sigma LOPAC single-point screen, Z-score from plate average and StDev.

T1 sequence (Q92551 whole entry): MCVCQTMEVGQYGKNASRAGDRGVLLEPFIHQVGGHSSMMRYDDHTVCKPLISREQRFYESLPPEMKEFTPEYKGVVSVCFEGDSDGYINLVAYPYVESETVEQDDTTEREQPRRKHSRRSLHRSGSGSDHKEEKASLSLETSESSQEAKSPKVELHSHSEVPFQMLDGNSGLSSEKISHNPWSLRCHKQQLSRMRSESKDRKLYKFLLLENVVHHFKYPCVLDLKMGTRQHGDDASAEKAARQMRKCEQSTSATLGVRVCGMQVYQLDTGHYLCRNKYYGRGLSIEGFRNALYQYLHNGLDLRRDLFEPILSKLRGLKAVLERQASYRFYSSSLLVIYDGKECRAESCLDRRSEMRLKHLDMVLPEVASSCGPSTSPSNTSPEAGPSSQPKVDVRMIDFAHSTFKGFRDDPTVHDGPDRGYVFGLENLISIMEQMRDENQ

For `Cl.N=C(N)NN` [Aminoguanidine hydrochloride], the “Raw Signal” value under setting [1] is recorded as 58743. The molecule also came in with a Z-score under setting [2] of 0.1462.

Consider `Cn1c(=O)c2[nH]cnc2n(C)c1=O.Cn1c(=O)c2[nH]cnc2n(C)c1=O.NCCN` [Aminophylline ethylenediamine], for which, under setting [1], the “Raw Signal” value was found to be 57914. The molecule further gave a Z-score under setting [2] of 0.0001585.

Consider `Nc1nc(N)c2nc(CNc3ccc(C(=O)N[C@@H](CCC(=O)O)C(=O)O)cc3)cnc2n1` [Aminopterin], for which, under setting [1], the “Raw Signal” value was determined as 55514. Further, the Z-score under setting [3] was -0.4225.

As to `CCCCc1oc2ccccc2c1C(=O)c1cc(I)c(OCCN(CC)CC)c(I)c1` [Amiodarone hydrochloride], the “Raw Signal” value under setting [1] was determined as 57216. In addition, the Z-score under setting [3] is given as -0.1228.

Turning to `CN(C)CCCO[C@@H]1[C@H]2OC(C)(C)O[C@H]2O[C@@H]1[C@H](O)CO` [Amiprilose hydrochloride], under setting [4], the “Raw Signal” value is reported as 53728. Further, the Z-score under setting [5] is listed as -0.7371.

Turning to `CN(C)CCC=C1c2ccccc2CCc2ccccc21` [Amitriptyline hydrochloride], the “Raw Signal” value under setting [4] came to 54808. Moreover, the Z-score under setting [5] is -0.5469.

For the molecule `N.S=C(S)N1CCCC1` [Ammonium pyrrolidinedithiocarbamate], under setting [6], the “Raw Signal” value is 60867. Also, under setting [7], the Z-score was found to be 0.9409.

In the case of `Clc1ccc2c(c1)C(N1CCNCC1)=Nc1ccccc1O2` [Amoxapine], the “Raw Signal” value under setting [4] came out at 50961. Under setting [5], this molecule displayed a Z-score of -1.224.

As to `CCNC(=O)N1CCN(CCCC(c2ccc(F)cc2)c2ccc(F)cc2)CC1` [Amperozide hydrochloride], under setting [4], the “Raw Signal” value was 52806. This molecule came in with a Z-score under setting [5] of -0.8995.

As to `COc1cc(NS(C)(=O)=O)ccc1Nc1c2ccccc2nc2ccccc12` [Amsacrine hydrochloride], under setting [1], the “Raw Signal” value came out at 58568. The molecule also registered a Z-score under setting [2] of 0.1153.

Take `N=c1ccn2c(n1)O[C@H]1[C@H](O)[C@@H](CO)O[C@H]12` [Ancitabine hydrochloride]: the “Raw Signal” value under setting [1] came to 57428. The molecule also had a Z-score under setting [2] of -0.08544.

Take `C[C@]12CC[C@@H](O)C[C@@H]1CC[C@@H]1[C@@H]2CC[C@]2(C)C(=O)CC[C@@H]12` [Androsterone]: the “Raw Signal” value worked out at 54396 and the Z-score is given as -0.6195.

For `COc1ccc(C(=O)N2CCCC2=O)cc1` [Aniracetam], the “Raw Signal” value under setting [1] came out at 56032. Under setting [3], this molecule registered a Z-score of -0.3313.

Take `Cl.c1ccc(CN(CC2=NCCN2)c2ccccc2)cc1` [Antozoline hydrochloride]: the “Raw Signal” value under setting [4] stood at 54212. Further, the Z-score under setting [5] is listed as -0.6519.

Consider `O=c1cc(-c2ccc(O)cc2)oc2cc(O)cc(O)c12` [Apigenin], for which, under setting [4], the “Raw Signal” value turned out to be 54339. Under setting [5], this molecule had a Z-score of -0.6295.

With `CN1CCc2cccc3c2[C@H]1Cc1ccc(O)c(O)c1-3` [Apomorphine hydrochloride hemihydrate], under setting [4], the “Raw Signal” value was 53248. The same molecule returned a Z-score under setting [5] of -0.8217.

As to `NC(N)=NCCCCN=C(N)N` [Arcaine sulfate], the “Raw Signal” value under setting [1] came out at 57202. This molecule displayed a Z-score under setting [3] of -0.1252.

Regarding `C#CCOC(=O)C1=CCCN(C)C1` [Arecaidine propargyl ester hydrobromide], the “Raw Signal” value under setting [1] is listed as 56259. The molecule also displayed a Z-score under setting [3] of -0.2913.

As for `COC(=O)C1=CCCN(C)C1` [Arecoline hydrobromide], the “Raw Signal” value under setting [1] came to 57110. The molecule further came in with a Z-score under setting [3] of -0.1414.

Consider `CC1=C(/C=C/C(C)=C/C=C/C(C)=C/C=C/C=C(C)/C=C/C=C(C)/C=C/C2=C(C)C(=O)[C@@H](O)CC2(C)C)C(C)(C)C[C@H](O)C1=O` [Astaxanthin], for which the “Raw Signal” value under setting [1] is given as 57440. Moreover, the Z-score under setting [2] is -0.08333.

For the molecule `C[N+]1(C)[C@@H]2CC[C@H]1C[C@@H](OC(=O)C(CO)c1ccccc1)C2` (some centres unmarked) [Atropine methyl bromide], the “Raw Signal” value under setting [4] is 52228. In addition, under setting [5], the Z-score is given as -1.0013.

In the case of `C[N+]1(C)[C@@H]2CC[C@H]1C[C@@H](OC(=O)C(CO)c1ccccc1)C2` (some centres unmarked) [Atropine methyl nitrate], the “Raw Signal” value under setting [6] was 60117. Moreover, the Z-score under setting [7] came out at 0.3882.

`CN1[C@@H]2CC[C@H]1C[C@@H](OC(=O)C(CO)c1ccccc1)C2` (some centres unmarked) [Atropine sulfate]: the “Raw Signal” value under setting [1] was found to be 57358. Further, the Z-score under setting [3] is listed as -0.09777.

Consider `O=C(O)C1=CC(=C(c2ccc(O)c(C(=O)O)c2)c2ccc(O)c(C(=O)O)c2)C=CC1=O` [Aurintricarboxylic acid], for which the “Raw Signal” value under setting [4] came to 8090. The molecule further yielded a Z-score under setting [5] of -8.775.

As for `Cn1cnc([N+](=O)[O-])c1Sc1ncnc2nc[nH]c12` [Azathioprine], the “Raw Signal” value under setting [4] amounted to 52333. This molecule also showed a Z-score under setting [5] of -0.9828.

Regarding `O=C(O)CCCCCCCC(=O)O` [Azelaic acid], the “Raw Signal” value under setting [6] is recorded as 63677. The Z-score under setting [7] turned out to be 1.015.

For `CCN1CCc2nc(N)oc2CC1.Cl.Cl` [B-HT 933 dihydrochloride], the “Raw Signal” value under setting [1] is on record as 56378. In addition, under setting [3], the Z-score is -0.2704.

As to `COc1ccccc1N1CCN(CCN2C(=O)CC3(CCCC3)CC2=O)CC1.Cl.Cl` [BMY 7378 dihydrochloride], under setting [4], the “Raw Signal” value was 52642. Under setting [5], this molecule showed a Z-score of -0.9284.

Regarding `COc1ccccc1N1CCN(CCCCNC(=O)c2ccc3ccccc3c2)CC1` [BP 897], the “Raw Signal” value under setting [6] is given as 60942. For the same molecule, under setting [7], the Z-score was found to be 0.5335.

For `OC(CN1CCN(c2cccc(Cl)c2)CC1)C(c1ccccc1)c1ccccc1` (centres unmarked) [BRL 15572], the “Raw Signal” value under setting [1] was 57949. This molecule also displayed a Z-score under setting [2] of 0.006323.

On to `C[C@H](Cc1ccc(OCC(=O)[O-])cc1)NC[C@H](O)c1cccc(Cl)c1.[Na+]` [BRL 37344 sodium], for which the “Raw Signal” value under setting [4] came to 53982. Moreover, the Z-score under setting [5] is -0.6924.

With `Cl.O=C(Cc1ccc(Cl)c(Cl)c1)N1CCCCC1CN1CCCC1` (centres unmarked) [BRL 52537 hydrochloride], the “Raw Signal” value under setting [1] was found to be 55058. Under setting [3], this molecule displayed a Z-score of -0.1876.

For the molecule `CN1CCC(c2c[nH]c3ccc(O)cc23)CC1.O=C(O)/C=C\C(=O)O` [BRL 54443 maleate], the “Raw Signal” value under setting [4] is 53701. The same molecule displayed a Z-score under setting [5] of -0.7419.

As for `Cl.c1ccc2sc(C3(N4CCCCC4)CCCCC3)cc2c1` [BTCP hydrochloride], the “Raw Signal” value under setting [1] is 55871. Under setting [3], the Z-score is given as -0.3597.

With `Cl.c1ccc2nc(C3=NCCN3)ccc2c1` [BU224 hydrochloride], the “Raw Signal” value under setting [6] was determined as 61573. Also, under setting [7], the Z-score is recorded as 0.6446.

Turning to `S=C=Nc1ccc2oc(C3=NCCN3)cc2c1` [BU99006], the “Raw Signal” value under setting [1] is on record as 56328. Also, the Z-score under setting [2] is 0.2358.

As to `O=C(O)CCCCCCC1C(=O)NC(=O)N1CCC(O)C1CCCCC1` (centres unmarked) [BW 245C], under setting [4], the “Raw Signal” value turned out to be 64569. Under “LOPAC single-point screen, Z-score from plate average and StDev”, the Z-score is listed as 1.71.

`C=CC[N+](C)(C)c1ccc(CCC(=O)CCc2ccc([N+](C)(C)CC=C)cc2)cc1.[Br-].[Br-]` [BW 284c51]: the “Raw Signal” value under setting [1] was determined as 57519. The molecule further returned a Z-score under setting [2] of -0.06941.

Regarding `CC(N)Cc1c[nH]c2ccc(OCc3cccs3)cc12` (centres unmarked) [BW 723C86], the “Raw Signal” value under setting [4] worked out at 55162. Also, the Z-score under setting [5] is listed as -0.4845.

In the case of `CC(/C=C/c1cccc(Oc2ccc(F)cc2)c1)N(O)C(N)=O` (centres unmarked) [BWB70C], under setting [1], the “Raw Signal” value turned out to be 58720. The Z-score under setting [2] was 0.1421.

(Values after article PMC5706701, “Development of a homogenous high-throughput assay for inositol hexakisphosphate kinase 1 activity” (PLoS ONE, 2017).)
